“Also recorded” adds a separate entry of the source.
Columns and labels:
ATDC5 cells = assay: Nitrite assay (Griess reaction), NO production; type: cell-based, murine; settings: LPS (100 ng/ml) or IL1B (0,5 ng/ml), 24h
Protocol: ATDC-5 cells were seeded in 12-well plates. Cells were seeded in a monolayer. After adhesion and incubation overnight in serum-free conditions (starvation), ATDC5 cells were stimulated for 24 h with LPS [100 ng/ml] or IL-1β [0,5 ng/ml] in the presence or absence of the compounds of the invention [10-100 µM]. As described above, 1×10^5 ATDC5 cells were seeded and treated for 24 h. Nitrite accumulation was determined in the culture medium using the Griess reaction. As previously described, after diazonium salt was dissolved, absorbance was measured at 550 nm in a microplate reader.

TLR4 [1] = assay: RT-PCR, LPS-induced mRNA expression of LCN2, IL6 and NOS2 in ATDC5 cells; type: cell-based, murine; settings: LPS (100 ng/ml), 24h
Protocol: (§1) ATDC-5 cells were seeded in 12-well plates. Cells were seeded in a monolayer. After adhesion and incubation overnight in serum-free conditions (starvation), ATDC5 cells were stimulated for 24 h with LPS [100 ng/ml] or IL-1β [0,5 ng/ml] in the presence or absence of the compounds of the invention [10-100 µM].
(§2) RNA was extracted using E.Z.N.A solation reagent (Omega) according to manufacturer's protocol. Relative quantitation was performed using the ΔΔC Comparative Method and the MxPro software (Stratagene, CA, USA) as the ratio of each gene to the expression of the housekeeping gene. Data are shown as mean ± S.E.M (error bars) of at least three independent experiments and represented as fold-change vs. controls.

RBP4 = RBP4 mRNA expression in chondrocytes; type: cell-based; settings: basal or inflammatory conditions (LPS or IL1β), 50 and 100 µM of PJ
Protocol: as §2

[2] = test system: primary human osteoarthritis chondrocytes and osteoblasts; assay: RT-PCR, inflammatory and catabolic marker genes in TLR4- and IL1R-activated primary cells; type: cell-based; settings: 50 µM, 24h, LPS (100 ng/ml) or IL1β (0,5 ng/ml)
Protocol: as §2
According to the results obtained in ATDC5 cells, we selected the concentration 50 µM and co-treated the primary cells with inflammatory stimuli for 24h at the same concentrations [LPS (100 ng/ml), and IL1β (0,5 ng/ml)].

IL1R [3] = assay: RT-PCR, IL1β-induced mRNA expression of LCN2, IL6 and NOS2 in ATDC5 cells; type: cell-based, murine; settings: IL1β (0,5 ng/ml), 24h
Protocol: as §1, §2

IL1R [4] = assay: Western blot, NOS2 protein expression in IL1β-stimulated ATDC5 cells; type: cell-based, murine; settings: IL1β (0,5 ng/ml), 24h
Protocol: as §1
(§3) Whole-cell protein extraction was performed using lysis buffer (RIPA Buffer). Immunoblots were incubated with the appropriated antibodies [INOS (rabbit polyclonal antibody) diluted 1:1000 (Thermo Fisher Scientific, MA, USA), IG (anti-rabbit antibody) diluted 1:5000 (Jackson ImmunoResearch Laboratories Inc., USA), b-actin (mouse polyclonal antibody) (Thermo Fisher Scientific, MA, USA) diluted 1:6500 and IG (anti-mouse antibody) diluted 1:10000] (Jackson ImmunoResearch Laboratories Inc., USA).
(§4) Then, all immunoblots were visualized using an Immobilon Western kit (Millipore, MA, USA). Blots densitometries were generated using a ChemiDoc MP Imaging System and analysed using Image J software (National Institutes of Health, Bethesda, MD, USA).

TLR4 [5] = assay: Western blot, NOS2 protein expression in LPS-stimulated ATDC5 cells; type: cell-based, murine; settings: LPS (100 ng/ml), 24h
Protocol: as §1, §3, §4

COc1ccc2c(c1)c(CC(=O)O)c(C)n2C(=O)c1ccc(Cl)cc1 [Indomethacin, reference compound]
NO production induced by LPS and IL1β (ATDC5 cells): did not suppress; also recorded: did not significantly inhibit

CC(=O)OC(/C=C\C1OC(=O)C=CC1O)CC(OC(C)=O)C(C)OC(C)=O (stereo not drawn) [Pectinolide J]
LPS-induced mRNA expression of LCN2, IL6 and NOS2 (TLR4 [1]): highest anti-inflammatory activity
RBP4 mRNA expression (RBP4): downregulates
inflammatory and catabolic marker genes (LCN2, NOS2, IL6, MMP3) induced by the inflammatory stimuli [2]: maximum anti-inflammatory activity
IL1β-induced expression of LCN2, IL6 and NOS2 (IL1R [3]): maximum inhibitory activity
concentration of inhibitory activity on IL1β-induced mRNA expression (IL1R [3]): 10 µM
NOS2 protein expression (250 kDa dimer), IL1β-induced (IL1R [4]): highest reduction of NOS2 expression
NO production induced by LPS and IL1β (ATDC5 cells): maximum inhibitory activity
concentration of maximum inhibitory activity on induced NO production (ATDC5 cells): 10 to 25 µM
NOS2 protein expression (250 kDa dimer), LPS-induced (TLR4 [5]): highest reduction of NOS2 expression

CC(=O)OC(/C=C\C1OC(=O)C=CC1OC(C)=O)CC(OC(C)=O)C(C)OC(C)=O (stereo not drawn) [Pectinolide E]
concentration of inhibitory activity on IL1β-induced mRNA expression (IL1R [3]): 50 µM

CC(=O)OC(/C=C\C1CC=CC(=O)O1)CC(OC(C)=O)C(C)OC(C)=O (stereo not drawn) [Hyptolide]
concentration of inhibitory activity on IL1β-induced mRNA expression (IL1R [3]): 100 µM

Source: EP4309652A1, “COMPOSITION FOR USE IN THE PREVENTION AND/OR TREATMENT OF DISEASES MEDIATED BY TLR4, IL1R, COX1/2 AND/OR RBP4” (Servizo Galego de Saúde (SERGAS), priority 2022, dated 2024)
